We go through 2 compounds from patent publication US20240293416A1, “TREATMENT OF LIVER DISORDERS WITH A THR-ß AGONIST” (Terns Pharmaceuticals, Inc., priority 2021, published 2024).

A short description of data set [1]: Food effect on PK performance in beagle dogs. In kind it is in vivo. The note with it: 10 mg capsule, 5% SLS; fasted vs high fat fed dogs, n=3 per group. As for the experimental part:
To determine the food effect on PK performance, beagle dogs were divided into two groups (n=3 per group). For the fasted group, dogs were fasted overnight through 4-hours post dosing. For the fed group, dogs were fed high fat food 30 minutes prior to administration.

The subject of data set [2] is SHBG, Apo B and serum lipids. As to the kind of experiment: Single ascending dose trial: serum PD biomarkers. The class given is in vivo, human. The note with it: for Apo B Change / SHBG Change: n = 6. The procedure:
(§1) A single-ascending dose clinical trial of Compound 1 (potassium salt) was performed.
PK parameters were estimated via noncompartmental methods using Phoenix WinNonlink (Certara, LP, Princeton, NJ). Concentrations of serum pharmacodynamic (PD) biomarkers apolipoprotein B (Apo B) and sex hormone binding globulin (SHBG) were measured using an immunoassay and serum lipids were determined using spectrophotometry.
PD sampling was performed pre-dose, and 48 hours and 72 hours post-dose. Percent change from baseline for PD markers were calculated using an ANCOVA model with percent change from baseline as dependent variable, treatment group as fixed effect, and baseline as covariate. Analyses used observed data only without imputation for missing data.

Data set [3] deals with SHBG, Apo B and serum lipids. The experiment in a line: Multiple ascending dose trial: serum PD biomarkers. In kind it is in vivo, human. The procedure: A multiple-ascending dose clinical trial of Compound 1 was performed.
(See Table 5, FIG. 7.) PK parameters were estimated via noncompartmental methods using Phoenix® WinNonlin® (Certara, LP, Princeton, NJ). Concentrations of serum pharmacodynamic (PD) biomarkers apolipoprotein B (Apo B) and sex hormone binding globulin (SHBG) were measured using an immunoassay and serum lipids were determined using spectrophotometry.
PD sampling was also performed. Percent change from baseline for PD markers were calculated using an ANCOVA model with percent change from baseline as dependent variable, treatment group as fixed effect, and baseline as covariate. Analyses used observed data only without imputation for missing data.

Data set [4] in a line: pH effect on PK performance in beagle dogs. The class given is in vivo. The conditions noted are these: 10 mg capsule, 5% SLS; pentagastrin vs famotidine pre-treatment, n=3 per group. The text has this:
To determine the pH effect on PK performance, beagle dogs were divided into two groups (n=3 per group).

The nature of data set [5]: Single ascending dose trial: adverse event and safety monitoring. In kind it is in vivo, human. As for the experimental part:
as §1

Data set [6] can be described thus: Multiple ascending doses in healthy subjects with elevated LDL-c: PK. In kind it is in vivo, human. The conditions noted are these: 1, 3, 6 or 10 mg once daily for 14 days. The text has this: Secondary Objectives: Evaluate the PK and PD of Compound 1 in healthy subjects with elevated LDL-c following multiple ascending doses of Compound 1.
For a further data set, the target named is P-gp (Homo sapiens, UniProt P08183). The experiment in a line: In vitro transporter inhibition, P-gp. In kind it is in vitro ADME.
A short description of data set [7]: DIO-GAN NASH mice: trough plasma compound levels by LC-MS/MS. In kind it is in vivo, C57BL/6JRj mice. The note with it: plasma 21-24 hours post final dose. The procedure: Terminal plasma samples were harvested by cardiac puncture approximately 21-24 hours after the last administration of compound(s). Terminal plasma samples were analyzed by high resolution LC-MS/MS using a Triple Quad 6500+ instrument. 20 μL of plasma sample was mixed with 200 μL of internal standard solution (100 ng/ml Labetalol+100 ng/ml Tolbutamide in acetonitrile), vortexed, and centrifuged at 4,000 rpm for 15 min at 4° C. […] The internal standard (retention time: 0.76 min), was used for quantification of the glucuronide metabolite of Compound 2 (retention time: 0.77 min). Calibration curves (1-3000 ng/mL) were generated in a matrix of mouse plasma (pooled vehicle control) for each analyte.
Terminal plasma samples collected by cardiac puncture 21-24 hours post final treatment dose (i.e., trough) were analyzed by LC-MS/MS. Values represent mean and standard deviation (SD). ND, not determined.

Data set [8] relates to biopsy-confirmed DIO-NASH mice. As to the kind of experiment: DIO-GAN NASH mice: body weight, organ weight, body composition. The class given is in vivo, C57BL/6JRj mice. The note with it: doses per Table 16. The text has this: C57BL/6JRj male mice (n=138) were fed the Gubra Amylin NASH (GAN) diet (40% fat, 22% fructose, 2% cholesterol [D09100310, Research Diets]) or lean chow diet for 35 weeks before treatment start. Prior to treatment all animals underwent liver biopsy for histological confirmation (steatosis score ≥2 and fibrosis stage ≥1) and stratification using the nonalcoholic fatty liver disease (NAFLD) activity scoring (NAS) and fibrosis staging system. The diet-induced obese mice on GAN diet (DIO-GAN) were randomized to 8 treatment groups (Table 16) based on percent-area of picrosirius red (PSR) staining. […] Vehicle-dosed lean chow-fed controls served as healthy controls (n=10). Mice were maintained on their respective diets (GAN or lean chow) for the duration of the study. Within-subject comparisons (pre-vs. post-treatment) were performed for liver biopsy histopathological scores. Terminal quantitative endpoints included plasma/liver biochemistry, liver histomorphometry, and liver transcriptomic analysis by RNAseq.
The diet-induced obese, Gubra Amylin NASH model (DIO-GAN) recapitulates many of the histopathological features of human NASH (Hansen 2020). […] To induce NASH disease, C57BL/6JRj mice were maintained a on diet high in fat, cholesterol, and fructose (GAN diet) for >35 weeks. Prior to therapeutic intervention, mice were biopsied to assess NASH disease and fibrosis severity; mice with a steatosis score <2 and fibrosis stage <1 were excluded from the study. DIO-GAN mice were then randomized into 8 treatment groups (n=16 per group) based on the percent fractional area of Picrosirius red (PSR) staining of the pre-treatment biopsy as well as body fat tissue mass determined by whole body Echo-magnetic resonance imaging (EchoMRI). […] DIO-GAN mice administered vehicle by oral gavage once daily served as a control. Mice were treated for a total of 12 weeks and were maintained on GAN diet throughout the study. Lean mice (n=10), maintained on normal chow diet throughout the study served as healthy controls.
Body composition was determined at baseline (Week-1) and Week 11 of the study by whole body EchoMRI to determine the relative levels lean and fat tissue as a percentage of body weight. Baseline levels of lean and fat tissue were well balanced across treatment groups (FIGS. 33A and 33B).

Bounds are passed on as bounds.

P-gp, sequence (P08183 whole entry): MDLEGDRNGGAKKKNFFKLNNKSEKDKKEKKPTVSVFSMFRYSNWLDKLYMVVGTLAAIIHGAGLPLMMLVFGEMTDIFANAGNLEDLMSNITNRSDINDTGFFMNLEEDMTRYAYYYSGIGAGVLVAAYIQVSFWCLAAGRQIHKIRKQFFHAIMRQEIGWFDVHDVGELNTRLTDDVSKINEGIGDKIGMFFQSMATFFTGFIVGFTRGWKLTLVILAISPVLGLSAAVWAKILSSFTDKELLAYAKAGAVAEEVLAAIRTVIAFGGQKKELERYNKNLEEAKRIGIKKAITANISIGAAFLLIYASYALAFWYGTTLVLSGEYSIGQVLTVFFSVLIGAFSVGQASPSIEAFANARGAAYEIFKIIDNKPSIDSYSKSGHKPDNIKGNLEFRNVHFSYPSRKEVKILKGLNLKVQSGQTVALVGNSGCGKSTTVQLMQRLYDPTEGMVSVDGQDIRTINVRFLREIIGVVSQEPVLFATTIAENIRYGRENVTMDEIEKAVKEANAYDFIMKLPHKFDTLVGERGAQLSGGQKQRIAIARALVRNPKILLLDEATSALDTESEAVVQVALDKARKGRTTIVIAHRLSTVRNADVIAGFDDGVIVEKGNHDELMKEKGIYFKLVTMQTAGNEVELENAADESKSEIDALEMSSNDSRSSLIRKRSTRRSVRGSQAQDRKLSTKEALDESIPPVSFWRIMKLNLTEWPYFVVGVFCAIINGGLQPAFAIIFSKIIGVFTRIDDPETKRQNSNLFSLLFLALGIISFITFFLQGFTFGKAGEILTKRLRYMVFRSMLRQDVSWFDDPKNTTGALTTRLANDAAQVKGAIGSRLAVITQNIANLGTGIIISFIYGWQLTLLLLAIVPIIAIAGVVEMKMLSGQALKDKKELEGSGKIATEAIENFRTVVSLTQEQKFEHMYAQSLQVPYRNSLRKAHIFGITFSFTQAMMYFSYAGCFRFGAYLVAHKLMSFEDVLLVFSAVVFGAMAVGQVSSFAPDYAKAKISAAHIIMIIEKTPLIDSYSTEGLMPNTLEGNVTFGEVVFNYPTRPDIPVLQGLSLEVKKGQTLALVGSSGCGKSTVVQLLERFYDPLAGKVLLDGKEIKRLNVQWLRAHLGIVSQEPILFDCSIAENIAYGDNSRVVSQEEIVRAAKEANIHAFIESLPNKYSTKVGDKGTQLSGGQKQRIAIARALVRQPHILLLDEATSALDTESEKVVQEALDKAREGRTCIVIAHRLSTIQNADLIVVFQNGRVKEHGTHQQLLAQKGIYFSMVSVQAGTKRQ

For `N#Cc1nn(-c2cc(Cl)c(Oc3n[nH]c(=O)c4ccccc34)c(Cl)c2)c(=O)[nH]c1=O` [Compound 1, 2-(3,5-dichloro-4-((4-oxo-3,4-dihydrophthalazin-1-yl)oxy)phenyl)-3,5-dioxo-2,3,4,5-tetrahydro-1,2,4-triazine-6-nitrile], in data set [1], the “food effect on Tmax” value is recorded as “delayed” and the “food effect on plasma exposure” value is reported as “did not have an impact on the plasma exposure”. Moreover, in data set [2] (Day 3 after single 3 mg dose), the “Apo B Change” value is −1.5% and the “SHBG Change” value turned out to be 0.20 nmol/L. For the same compound, the “Apo B Change” value in data set [2] (Day 3 after single 10 mg dose) is reported as −5.6%. The “SHBG Change” value in data set [2] (Day 3 after single 30 mg dose) came out at 6.0 nmol/L. Moreover, the “LDL-c, total cholesterol, and Apo-B” value in [2] (Day 3 following single dose, similar on Day 4) is “Dose-dependent decreases”. For the same compound, the triglyceride levels result in [2] (after a single dose) is “No significant changes”. The “SHBG relative to placebo” value in data set [2] (single doses of ≥10 mg) is given as “Significant increases”. For the same compound, in data set [3] (all dose levels), the “total cholesterol, LDL-c, Apo B, and triglycerides” value is listed as “Reductions”. Further, the HDL-c result in data set [3] (day 15) is “did not significantly change”. Further, the “total cholesterol, LDL-c, Apo B, and triglycerides” value in data set [3] (day 15, 10 mg dose cohort) is “significant reductions”. For the same compound, the SHBG result in data set [3] (multiple doses, even at 3 mg QD) was “significant and dose-dependent increases”. The “pH effect on plasma concentrations” value in [4] is given as “Minimal pH effect”. The Heart rates entry in data set [5] (24 hours after single dose) was “remained stable and within the normal range”. Further, the “plasma AUC0-∞ without any significant side effects” value in [5] (single ascending dose studies) is ≤ 50,000 ng*hg/mL. The “overall safety and tolerability” value in data set [5] (single ascending doses up to 60 mg) is “overall safe and well-tolerated”. For the same compound, in data set [5] (single doses 3-60 mg), the “TSH, free T3, and free T4 levels” value is on record as “remained within the normal range”; the “bilirubin levels above the normal range” value is on record as “no subjects”; the “cardiac biomarkers (troponin I, CK-MB) or other clinical safety tests” value is “no notable changes”; the “cardiac related AEs (e.g., tachycardia, arrythmias)” value was “No cardiac related AEs”. Further, in [5] (single doses 3-60 mg), the “increases in ALT more than 2-times ULN” value is on record as “No subjects”, the “severity of adverse events” value is “mild or moderate in severity” and the “vital signs or ECG parameters” value is on record as “no remarkable changes”. For the same compound, the “PK dose proportionality and variability” value in data set [6] is “dose-proportional PK with low variability”.

The IC50 is the concentration that inhibits the measured activity by half. High values mean a need for much substance, low ones inhibition by little substance. Compound `Cn1cc(C(=O)O)c2ccc(C3CCC(OCc4c(-c5c(Cl)cccc5Cl)noc4C4CC4)CC3)cc21` (stereo not drawn) [Compound 2] gave an IC50 against P-gp of 3.92 µM. Also, the “Mean trough analyte concentration (SD)” value in [7] (treatment group Combo-high, n = 14) was 3.3 (1.8) ng/mL. The “Mean trough analyte concentration (SD)” value in [7] (treatment group Combo-med, n = 16) is recorded as 5.8 (3.5) ng/mL. Moreover, the “Mean trough analyte concentration (SD)” value in data set [7] (treatment group Compound 2 (10 mg/kg), n = 16) is reported as 7.4 (3.8) ng/mL. For the same compound, in data set [8] (PO QD 12 weeks), the “body weight at the end of study vs DIO-GAN vehicle control” value is listed as “significantly lower” and the “body weight during the study” value was “decreased body weight”. Further, in [8] (Week 11), the “fat tissue (% BW, EchoMRI)” value is on record as “reduced levels of fat tissue” and the “relative lean tissue mass (EchoMRI)” value was “significant increases”.
